According to patent US7994185B2, “Benzene sulfonamide thiazole and oxazole compounds” (Glaxo Smith Kline LLC, priority 2008, dated 2011):
Read-outs that look alike come from different tables or passages of the source.

Columns and labels:
[1] = molecular target: T1, BRAFV600E full-length (amino acids 2-766) (Homo sapiens, UniProt P15056, V600E); assay: B-Raf Accelerated MEK ATPase assay (BRAMA); assay type: biochemical; conditions: later runs, average pIC50 for the one or more runs, categorized
T1 construct: His6-tagged BRAFV600E full-length (amino acids 2-766); His6; made in house; host or cells: baculovirus expression system (insect cells)
T1 sequence (P15056 2-766 V600E): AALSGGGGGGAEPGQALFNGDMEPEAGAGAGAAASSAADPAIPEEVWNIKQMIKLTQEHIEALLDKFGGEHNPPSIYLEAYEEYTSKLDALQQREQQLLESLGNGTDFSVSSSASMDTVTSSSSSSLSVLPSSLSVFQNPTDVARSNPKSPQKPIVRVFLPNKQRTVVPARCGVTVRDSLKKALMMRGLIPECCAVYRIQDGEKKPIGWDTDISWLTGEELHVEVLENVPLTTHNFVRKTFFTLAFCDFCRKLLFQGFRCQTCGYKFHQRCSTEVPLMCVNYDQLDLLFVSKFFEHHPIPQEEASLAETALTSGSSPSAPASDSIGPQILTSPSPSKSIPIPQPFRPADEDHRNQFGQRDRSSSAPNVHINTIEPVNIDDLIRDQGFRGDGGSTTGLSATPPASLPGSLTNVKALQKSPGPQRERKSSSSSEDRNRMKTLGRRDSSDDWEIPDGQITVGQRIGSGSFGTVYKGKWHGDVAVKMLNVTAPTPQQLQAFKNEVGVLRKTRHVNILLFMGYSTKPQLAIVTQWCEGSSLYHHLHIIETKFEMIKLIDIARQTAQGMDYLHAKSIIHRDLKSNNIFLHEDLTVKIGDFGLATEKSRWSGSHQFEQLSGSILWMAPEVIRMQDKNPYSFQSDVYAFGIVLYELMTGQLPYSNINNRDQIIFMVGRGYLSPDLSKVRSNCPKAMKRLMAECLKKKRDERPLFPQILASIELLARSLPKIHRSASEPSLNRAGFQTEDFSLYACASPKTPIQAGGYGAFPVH
Summary of the method: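 Coupled-enzyme readout: ADP generated by MEK-mediated ATP hydrolysis, uncoupled from ERK phosphorylation, is linked to NADH oxidation through pyruvate kinase and lactate dehydrogenase.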

[2] = test system: Human melanoma cancer cells (SK-MEL-28); assay: Cell growth inhibition assay (CellTiter-Glo), SK-MEL-28; assay type: cell-based; conditions: SK-MEL-28, Table 3b, later runs, average for the one or more runs, categorized, read-out: IC50 for SK-MEL-28
[3] = test system: Human colon tumor cells (Colo205); assay: Cell growth inhibition assay (CellTiter-Glo), Colo205; assay type: cell-based; conditions: COLO 205, Table 2b, later runs, average for the one or more runs, categorized, read-out: IC50 for Colo205
Summary of the method: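 Colo205 (and SK-MEL-28) cells in RPMI with 10% FBS were exposed to 10-point 1:3 serial dilutions of compound at 0.2% final DMSO for 3 days at 37 °C. Total ATP, a surrogate for cell number, was read by CellTiter-Glo luminescence, with % growth inhibition relative to DMSO-treated wells.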

[4] = Table 1b, read-out: B-Raf pIC50 (converted)

| IC50 [1, 4] | Structure (SMILES) | IC50 [2] | IC50 [3] | IC50 ([1]; B-Raf pIC50, Table 1b) |
| --- | --- | --- | --- | --- |
| 3.16 to 31.6 nM | CC(C)(C)c1nc(-c2cccc(NS(=O)(=O)c3c(F)cccc3F)c2F)c(-c2ccnc(CCCO)n2)s1 [Example 247, N-(3-{2-(1,1-dimethylethyl)-5-[2-(3-hydroxypropyl)-4-pyrimidinyl]-1,3-thiazol-4-yl}-2-fluorophenyl)-2,6-difluorobenzenesulfonamide] | < 100 nM | < 100 nM |  |
| 3.16 to 31.6 nM | CC(C)(O)CCc1nccc(-c2sc(N3CCOCC3)nc2-c2cccc(NS(=O)(=O)c3cc(F)ccc3F)c2F)n1 [Example 248, 2,5-difluoro-N-{2-fluoro-3-[5-[2-(3-hydroxy-3-methylbutyl)-4-pyrimidinyl]-2-(4-morpholinyl)-1,3-thiazol-4-yl]phenyl}benzenesulfonamide] | < 100 nM | < 100 nM |  |
| 3.16 to 31.6 nM | CC(C)(O)CCc1nccc(-c2sc(C(C)(C)C)nc2-c2cccc(NS(=O)(=O)c3c(F)cccc3F)c2F)n1 [Example 249, N-(3-{2-(1,1-dimethylethyl)-5-[2-(3-hydroxy-3-methylbutyl)-4-pyrimidinyl]-1,3-thiazol-4-yl}-2-fluorophenyl)-2,6-difluorobenzenesulfonamide] | < 100 nM | < 100 nM |  |
| 3.16 to 31.6 nM | CC(C)(O)CCc1nccc(-c2sc(C(C)(C)C)nc2-c2cccc(NS(=O)(=O)c3cc(F)ccc3F)c2F)n1 [Example 250, N-(3-{2-(1,1-dimethylethyl)-5-[2-(3-hydroxy-3-methylbutyl)-4-pyrimidinyl]-1,3-thiazol-4-yl}-2-fluorophenyl)-2,5-difluorobenzenesulfonamide] | 100 to 1000 nM | < 100 nM |  |
| 3.16 to 31.6 nM | CC(C)(C)c1nc(-c2cccc(NS(=O)(=O)c3c(F)cccc3F)c2F)c(-c2ccnc(CCS(C)(=O)=O)n2)s1 [Example 251, N-[3-(2-(1,1-dimethylethyl)-5-{2-[2-(methylsulfonyl)ethyl]-4-pyrimidinyl}-1,3-thiazol-4-yl)-2-fluorophenyl]-2,6-difluorobenzenesulfonamide] | < 100 nM | < 100 nM |  |
|  | CC(C)(C)c1nc(-c2cccc(NS(=O)(=O)c3cc(F)ccc3F)c2Cl)c(-c2ccnc(CCS(C)(=O)=O)n2)s1 [Example 252, N-[2-chloro-3-(2-(1,1-dimethylethyl)-5-{2-[2-(methylsulfonyl)ethyl]-4-pyrimidinyl}-1,3-thiazol-4-yl)phenyl]-2,5-difluorobenzenesulfonamide] | < 100 nM | < 100 nM | ≤ 3.16 nM |
| 3.16 to 31.6 nM | Cc1nccc(-c2sc(N3CCS(=O)(=O)CC3)nc2-c2cccc(NS(=O)(=O)c3cc(F)ccc3F)c2F)n1 [Example 253, N-{3-[2-(1,1-dioxido-4-thiomorpholinyl)-5-(2-methyl-4-pyrimidinyl)-1,3-thiazol-4-yl]-2-fluorophenyl}-2,5-difluorobenzenesulfonamide] | < 100 nM | < 100 nM |  |
| 3.16 to 31.6 nM | CC(C)(C)c1nc(-c2cccc(NS(=O)(=O)c3cc(F)ccc3F)c2F)c(-c2ccnc(CCC(=O)N3CCOCC3)n2)s1 [Example 254, N-[3-(2-(1,1-dimethylethyl)-5-{2-[3-(4-morpholinyl)-3-oxopropyl]-4-pyrimidinyl}-1,3-thiazol-4-yl)-2-fluorophenyl]-2,5-difluorobenzenesulfonamide] | < 100 nM | 100 to 1000 nM |  |
| 3.16 to 31.6 nM | CC(C)(C)c1nc(-c2cccc(NS(=O)(=O)c3cc(F)ccc3F)c2F)c(-c2ccnc(CCC(=O)N3CCS(=O)(=O)CC3)n2)s1 [Example 255, N-[3-(2-(1,1-dimethylethyl)-5-{2-[3-(1,1-dioxido-4-thiomorpholinyl)-3-oxopropyl]-4-pyrimidinyl}-1,3-thiazol-4-yl)-2-fluorophenyl]-2,5-difluorobenzenesulfonamide] | < 100 nM | < 100 nM |  |
|  | CC(C)(C)c1nc(-c2cccc(NS(=O)(=O)c3ccoc3)c2F)c(-c2ccncn2)s1 [Example 256, N-{3-[2-(1,1-dimethylethyl)-5-(4-pyrimidinyl)-1,3-thiazol-4-yl]-2-fluorophenyl}-3-furansulfonamide] | < 100 nM | < 100 nM | ≤ 3.16 nM |
|  | CC(C)(C)c1nc(-c2c(F)ccc(NS(=O)(=O)c3cc(F)ccc3F)c2F)c(-c2ccnc(N)n2)s1 [Example 258, N-{3-[5-(2-amino-4-pyrimidinyl)-2-(1,1-dimethylethyl)-1,3-thiazol-4-yl]-2,4-difluorophenyl}-2,5-difluorobenzenesulfonamide] | < 100 nM | < 100 nM | ≤ 3.16 nM |
|  | CC(C)(C)c1nc(-c2cccc(NS(=O)(=O)c3ccco3)c2Cl)c(-c2ccnc(N)n2)s1 [Example 259, N-{3-[5-(2-amino-4-pyrimidinyl)-2-(1,1-dimethylethyl)-1,3-thiazol-4-yl]-2-chlorophenyl}-2-furansulfonamide] | < 100 nM | < 100 nM | ≤ 3.16 nM |
|  | Cc1nccc(-c2sc(C(C)(C)C)nc2-c2c(F)ccc(NS(=O)(=O)c3cc(F)ccc3F)c2F)n1 [Example 262, N-{3-[2-(1,1-dimethylethyl)-5-(2-methyl-4-pyrimidinyl)-1,3-thiazol-4-yl]-2,4-difluorophenyl}-2,5-difluorobenzenesulfonamide] | < 100 nM | < 100 nM | ≤ 3.16 nM |
|  | Cc1nccc(-c2sc(C(C)(C)C)nc2-c2cccc(NS(=O)(=O)c3ccco3)c2Cl)n1 [Example 263, N-{2-chloro-3-[2-(1,1-dimethylethyl)-5-(2-methyl-4-pyrimidinyl)-1,3-thiazol-4-yl]phenyl}-2-furansulfonamide] | 100 to 1000 nM | 100 to 1000 nM | ≤ 3.16 nM |
|  | CC(C)(C)c1nc(-c2cccc(NS(=O)(=O)c3ccoc3)c2Cl)c(-c2ccnc(N)n2)s1 [Example 264, N-{3-[5-(2-amino-4-pyrimidinyl)-2-(1,1-dimethylethyl)-1,3-thiazol-4-yl]-2-chlorophenyl}-3-furansulfonamide] | < 100 nM | < 100 nM | ≤ 3.16 nM |
|  | Nc1nccc(-c2sc(N3CCOCC3)nc2-c2cccc(NS(=O)(=O)c3ccoc3)c2Cl)n1 [Example 266, N-{3-[5-(2-amino-4-pyrimidinyl)-2-(4-morpholinyl)-1,3-thiazol-4-yl]-2-chlorophenyl}-3-furansulfonamide] | < 100 nM | < 100 nM | ≤ 3.16 nM |
|  | Nc1nccc(-c2sc(N3CCOCC3)nc2-c2cccc(NS(=O)(=O)c3ccoc3)c2F)n1 [Example 267, N-{3-[5-(2-amino-4-pyrimidinyl)-2-(4-morpholinyl)-1,3-thiazol-4-yl]-2-fluorophenyl}-3-furansulfonamide] | 100 to 1000 nM | 100 to 1000 nM | ≤ 3.16 nM |
|  | O=S(=O)(Nc1cccc(-c2nc(N3CCOCC3)sc2-c2ccncn2)c1Cl)c1ccoc1 [Example 269, N-{2-chloro-3-[2-(4-morpholinyl)-5-(4-pyrimidinyl)-1,3-thiazol-4-yl]phenyl}-3-furansulfonamide] | 100 to 1000 nM | < 100 nM | ≤ 3.16 nM |
|  | Cc1nccc(-c2sc(C(C)(C)C)nc2-c2cccc(NS(=O)(=O)c3ccoc3)c2Cl)n1 [Example 270, N-{2-chloro-3-[2-(1,1-dimethylethyl)-5-(2-methyl-4-pyrimidinyl)-1,3-thiazol-4-yl]phenyl}-3-furansulfonamide] | 100 to 1000 nM | 100 to 1000 nM | ≤ 3.16 nM |
| 3.16 to 31.6 nM | Cc1nccc(-c2sc(N3CCOCC3)nc2-c2cccc(NS(=O)(=O)c3ccoc3)c2Cl)n1 [Example 271, N-{2-chloro-3-[5-(2-methyl-4-pyrimidinyl)-2-(4-morpholinyl)-1,3-thiazol-4-yl]phenyl}-3-furansulfonamide] | < 100 nM | 100 to 1000 nM |  |
| 3.16 to 31.6 nM | Cc1nccc(-c2sc(N3CCOCC3)nc2-c2cccc(NS(=O)(=O)c3ccoc3)c2F)n1 [Example 272, N-{2-fluoro-3-[5-(2-methyl-4-pyrimidinyl)-2-(4-morpholinyl)-1,3-thiazol-4-yl]phenyl}-3-furansulfonamide] | < 100 nM | 100 to 1000 nM |  |
| 3.16 to 31.6 nM | CC(C)(C)c1nc(-c2cccc(NS(=O)(=O)c3ccccn3)c2F)c(-c2ccnc(N)n2)s1 [Example 278, N-{3-[5-(2-amino-4-pyrimidinyl)-2-(1,1-dimethylethyl)-1,3-thiazol-4-yl]-2-fluorophenyl}-2-pyridinesulfonamide] | 100 to 1000 nM | 100 to 1000 nM |  |
|  | Nc1nccc(-c2sc(C3CCOCC3)nc2-c2cccc(NS(=O)(=O)c3cnccn3)c2F)n1 [Example 280, N-{3-[5-(2-amino-4-pyrimidinyl)-2-(tetrahydro-2H-pyran-4-yl)-1,3-thiazol-4-yl]-2-fluorophenyl}-2-pyrazinesulfonamide] | 100 to 1000 nM | 100 to 1000 nM | ≤ 3.16 nM |
|  | Nc1nccc(-c2sc(C3CCOCC3)nc2-c2cccc(NS(=O)(=O)c3ccoc3)c2F)n1 [Example 281, N-{3-[5-(2-amino-4-pyrimidinyl)-2-(tetrahydro-2H-pyran-4-yl)-1,3-thiazol-4-yl]-2-fluorophenyl}-3-furansulfonamide] | < 100 nM | < 100 nM | ≤ 3.16 nM |
